Experimental data taken from patent publication US20060193804A1, “Haircare use of cyclic amine derivatives” (L'OREAL, priority 2005, published 2006).

Test system: human striated muscle cells innervated with explants of rat embryonic spinal ganglia and spinal cord
Experiment: nerve/muscle coculture model: frequency of muscle fiber contractions
Format: cell-based
Conditions: for inhibition at 10 µM: Homo sapiens, concentration of 10^−5 M, contractions counted over 30 seconds after incubation for 60 seconds, read-out: inhibition of the frequency of contraction of the muscle fibers
Description: Compounds 1 and 2 were tested at a given concentration, on a model of nerve/muscle coculture, which makes it possible to recreate a motor arc by innervating human striated muscle cells with explants of rat embryonic spinal ganglia and spinal cord.
This test is predictive of an inhibitory effect on muscle fiber contractions.
The protocol adopted is as follows:
Human myoblasts (primary culture of human muscle cells, M1b) were inoculated in 24-well plates. The culture medium is a mixture of ⅔ MEM (Invitrogen 21090-022), ⅓ M199 (Invitrogen 31153-026) and 5% FCS. At confluence, spinal cord explants from 13-day-old rat embryos are placed on the primary culture. The first contractions of the muscle fibers are observed after one week of coculture. After three weeks, these muscle fibers are striated and have mature differentiated neuromuscular junctions.
The products are tested in triplicate (3 fibers analysed) at two concentrations. For each culture well, a muscle fiber having regular contractions (>60 contractions per minute) is selected and the number of contractions is counted over 30 seconds. The test product is then added to the culture medium under a microscope without moving the microscope stage. After incubation for 60 seconds, the number of contractions is again counted over 30 seconds. The whole experiment is recorded using a digital camera. The videos are saved on an electronic medium.

SMILES | dose-response effect on contraction of the muscle fibers | inhibition at 10 µM
c1ccc(CCCCN2CCC(c3ccccc3)CC2)cc1 [Compound 1] | induces a dose-response effect | 50%
c1ccc(CCCC2CCN(CCCc3ccccc3)CC2)cc1 [Compound 2] |  | ~55%
